Assay results: the supplement of paper PMC10307832

How the values were obtained:
Test in all cases: relative viability (nuclei count vs DMSO), 5 days (fraction); higher = more cells survive
Idelalisib + Luminespib = compound: CC[C@H](Nc1ncnc2[nH]cnc12)c1nc2cccc(F)c2c(=O)n1-c1ccccc1 [Idelalisib] + CCNC(=O)c1noc(-c2cc(C(C)C)c(O)cc2O)c1-c1ccc(CN2CCOCC2)cc1 [Luminespib] (partner 0.01 µM)
How it was run: (§1)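 Cells from lung cancer lines were seeded into 1536-well plates and, one day later, dosed by pin tool. Treatments were either a single drug or a fixed dose of an anchor drug with five library-drug doses (not always all listed) in √10 steps. After 5 days, nuclei were stained in a one-step fixation (final 0.05% Triton X-100, 1% formaldehyde, 1 ug/ml Hoechst) and counted on 4× images, and relative viability is the treated-to-vehicle nuclei ratio, as the median of duplicate plates.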

Idelalisib + Phenformin = compound: CC[C@H](Nc1ncnc2[nH]cnc12)c1nc2cccc(F)c2c(=O)n1-c1ccccc1 [Idelalisib] + N=C(N)NC(=N)NCCc1ccccc1 [Phenformin] (partner 250 µM)
How it was run: as §1

Pemetrexed + OSI-027 = compound: Nc1nc2[nH]cc(CCc3ccc(C(=O)N[C@@H](CCC(=O)O)C(=O)O)cc3)c2c(=O)[nH]1 [Pemetrexed] + COc1cccc2cc(-c3nc([C@H]4CC[C@H](C(=O)O)CC4)n4ncnc(N)c34)[nH]c12 [OSI-027] (partner 0.5 µM)
How it was run: as §1

Pemetrexed + Palbociclib = compound: Nc1nc2[nH]cc(CCc3ccc(C(=O)N[C@@H](CCC(=O)O)C(=O)O)cc3)c2c(=O)[nH]1 [Pemetrexed] + CC(=O)c1c(C)c2cnc(Nc3ccc(N4CCNCC4)cn3)nc2n(C2CCCC2)c1=O [Palbociclib] (partner 0.5 µM)
How it was run: as §1

| Cell Line | relative viability (Idelalisib + Luminespib; first compound 0.04 µM) | relative viability (Idelalisib + Luminespib; first compound 0.1265 µM) | relative viability (Idelalisib + Luminespib; first compound 0.4 µM) | relative viability (Idelalisib + Luminespib; first compound 1.265 µM) | relative viability (Idelalisib + Luminespib; first compound 4 µM) | relative viability (Idelalisib + Phenformin; first compound 0.04 µM) | relative viability (Idelalisib + Phenformin; first compound 0.1265 µM) | relative viability (Idelalisib + Phenformin; first compound 0.4 µM) | relative viability (Idelalisib + Phenformin; first compound 1.265 µM) | relative viability (Idelalisib + Phenformin; first compound 4 µM) | relative viability (Pemetrexed + OSI-027; first compound 0.002 µM) | relative viability (Pemetrexed + OSI-027; first compound 0.006325 µM) | relative viability (Pemetrexed + OSI-027; first compound 0.02 µM) | relative viability (Pemetrexed + OSI-027; first compound 0.06325 µM) | relative viability (Pemetrexed + OSI-027; first compound 0.2 µM) | relative viability (Pemetrexed + Palbociclib; first compound 0.002 µM) | relative viability (Pemetrexed + Palbociclib; first compound 0.006325 µM) | relative viability (Pemetrexed + Palbociclib; first compound 0.02 µM) | relative viability (Pemetrexed + Palbociclib; first compound 0.06325 µM) | relative viability (Pemetrexed + Palbociclib; first compound 0.2 µM) |
| --- | --- | --- | --- | --- | --- | --- | --- | --- | --- | --- | --- | --- | --- | --- | --- | --- | --- | --- | --- | --- |
| EMC-BAC-2 | 1.34 | 1.24 | 1.03 | 1.25 | 1.13 | 0.564 | 0.517 | 0.478 | 0.506 | 0.524 | 0.352 | 0.338 | 0.4 | 0.372 | 0.363 | 0.51 | 0.461 | 0.543 | 0.493 | 0.466 |
| ChaGo-K-1 | 0.558 | 0.632 | 0.516 | 0.523 | 0.537 | 0.49 | 0.453 | 0.424 | 0.477 | 0.436 | 0.572 | 0.59 | 0.61 | 0.317 | 0.23 | 0.959 | 0.888 | 0.971 | 0.668 | 0.369 |
| NCI-H2023 | 0.644 | 0.784 | 0.79 | 0.87 | 0.67 | 0.407 | 0.391 | 0.363 | 0.361 | 0.351 | 0.248 | 0.38 | 0.464 | 0.295 | 0.166 | 0.347 | 0.387 | 0.384 | 0.323 | 0.125 |
| EKVX | 0.703 | 0.916 | 0.723 | 0.804 | 0.814 | 0.244 | 0.258 | 0.213 | 0.225 | 0.234 | 0.673 | 0.678 | 0.693 | 0.706 | 0.611 | 0.386 | 0.365 | 0.407 | 0.399 | 0.284 |
| NCI-H2085 | 0.422 | 0.409 | 0.374 | 0.487 | 0.257 | 0.788 | 0.833 | 0.558 | 0.735 | 0.471 | 0.653 | 0.73 | 0.769 | 0.85 | 0.848 | 0.457 | 0.458 | 0.495 | 0.471 | 0.464 |
| NCI-H3122 | 0.0784 | 0.0938 | 0.115 | 0.0796 | 0.0833 | 0.389 | 0.371 | 0.403 | 0.41 | 0.388 | 0.857 | 0.879 | 0.923 | 0.524 | 0.221 | 0.164 | 0.192 | 0.206 | 0.222 | 0.165 |
| HCC-827 | 1.18 | 0.545 | 0.478 | 0.249 | 0.374 | 0.424 | 0.393 | 0.37 | 0.352 | 0.323 | 0.663 | 0.756 | 0.899 | 0.764 | 0.591 | 0.386 | 0.413 | 0.529 | 0.44 | 0.327 |
| HARA | 0.778 | 0.642 | 0.613 | 0.683 | 0.6 | 0.525 | 0.52 | 0.432 | 0.45 | 0.416 | 0.407 | 0.533 | 0.53 | 0.487 | 0.186 | 0.241 | 0.277 | 0.228 | 0.231 | 0.234 |
| NCI-H441 | 0.365 | 0.354 | 0.308 | 0.308 | 0.316 | 0.803 | 0.919 | 0.639 | 0.885 | 0.898 | 0.63 | 0.504 | 0.574 | 0.431 | 0.368 | 0.212 | 0.229 | 0.211 | 0.18 | 0.204 |
| NCI-H2342 | 0.764 | 0.757 | 0.629 | 0.72 | 0.496 | 0.597 | 0.584 | 0.514 | 0.614 | 0.482 | 0.537 | 0.618 | 0.593 | 0.633 | 0.698 | 0.494 | 0.505 | 0.57 | 0.514 | 0.521 |
| SK-MES-1 | 0.847 | 0.689 | 0.591 | 0.546 | 0.542 | 0.704 | 0.675 | 0.663 | 0.686 | 0.674 | 0.72 | 0.611 | 0.615 | 0.572 | 0.554 | 0.316 | 0.305 | 0.353 | 0.33 | 0.327 |
| HCC-15 | 0.185 | 0.242 | 0.286 | 0.26 | 0.404 | 0.498 | 0.511 | 0.389 | 0.587 | 0.5 | 0.592 | 0.668 | 0.76 | 0.501 | 0.203 | 0.661 | 0.712 | 0.717 | 0.669 | 0.309 |
| ABC-1 | 0.466 | 0.643 |  | 0.521 | 0.497 | 0.243 | 0.254 | 0.231 | 0.267 | 0.217 | 0.515 | 0.359 | 0.736 | 0.529 | 0.512 | 0.905 | 0.527 | 0.684 | 0.468 | 0.542 |
| EPLC-272H | 0.521 | 0.291 | 0.309 | 0.265 | 0.325 | 0.302 | 0.291 | 0.308 | 0.257 | 0.265 | 0.268 | 0.257 | 0.343 | 0.302 | 0.265 | 0.355 | 0.331 | 0.356 | 0.332 | 0.303 |
| NCI-H2009 | 1.01 | 1.04 | 1.02 | 1.11 | 1.03 | 0.496 | 0.483 | 0.474 | 0.536 | 0.491 | 0.573 | 0.607 | 0.749 | 0.66 | 0.683 | 0.263 | 0.205 | 0.194 | 0.22 | 0.203 |
| NCI-H661 | 0.985 | 0.907 | 0.85 | 0.987 | 1.04 | 0.271 | 0.256 | 0.256 | 0.269 | 0.281 | 0.782 | 0.711 | 0.767 | 0.698 | 0.694 | 0.501 | 0.419 | 0.405 | 0.415 | 0.386 |
